logP	SMILES
2.08	COc1ccc(CCNC[C@H](O)COc2ccc(CCc3ncc(-c4cccs4)[nH]3)cc2)cc1OC
1.9	COc1ccc(CCNC[C@H](O)COc2ccc(-c3ncc(Br)[nH]3)cc2)cc1OC
2.4	COc1ccc(CCNC[C@H](O)COc2ccc(-c3ncc(Cl)[nH]3)cc2)cc1OC
0.87	COc1ccc(CCNC[C@H](O)COc2ccc(Cc3ncc(C(C)=O)[nH]3)cc2)cc1OC
2.28	COc1ccc(CCNC[C@H](O)COc2ccc(Cc3ncc(-c4cccs4)[nH]3)cc2)cc1OC
2.6	COc1ccc(CCNCC(O)COc2ccc(-c3ncco3)cc2)cc1OC (centres undefined)
0.63	COc1ccc(CCNC[C@H](O)COc2ccc(-c3ncc(CO)[nH]3)cc2)cc1OC
1.71	COCc1cnc(-c2ccc(OC[C@@H](O)CNCCc3ccc(OC)c(OC)c3)cc2)[nH]1
1.21	COc1ccc(CCNCC(O)COc2ccc(OCc3ncc[nH]3)cc2)cc1OC (centres undefined)
1.29	COc1ccc(CCNC[C@H](O)COc2ccc(COCc3ncc[nH]3)cc2)cc1OC
1.28	COc1ccc(CCNC[C@H](O)COc2ccc(Cc3ncc(C)[nH]3)cc2)cc1OC
2.08	COc1ccc(CCNCC(O)COc2ccc(-c3nccn3C)cc2)cc1OC (centres undefined)
0.84	CCOCc1cnc(-c2ccc(OC[C@@H](O)CNCCc3ccc(OC)c(OC)c3)cc2)[nH]1

Second part, the molecule before the results:

SMILES	logP
CCOC(=O)c1cnc(-c2ccc(OC[C@@H](O)CNCCc3ccc(OC)c(OC)c3)cc2)[nH]1	2.3
COc1ccc(CCNC[C@H](O)COc2ccc(-c3ncc(C(C)=O)[nH]3)cc2)cc1OC	1.23
CCOCCNCC(O)COc1ccc(-c2ncc(-c3cccs3)[nH]2)cc1 (centres undefined)	2.25
COc1ccc(CCNC[C@H](O)COc2ccc(-c3ncc(C(C)C)[nH]3)cc2)cc1OC	2.49
COCc1nc(-c2ccc(OC[C@@H](O)CNCCc3ccc(OC)c(OC)c3)cc2)[nH]c1C	1.07
COc1ccc(CCNC[C@H](O)COc2ccc(-c3ncc(Br)[nH]3)cc2Cl)cc1OC	2.73
COc1ccc(CCNCC(O)COc2ccc(-c3ncc(C)[nH]3)cc2Br)cc1OC (centres undefined)	2.3
COc1ccc(CCNCC(O)COc2ccc(-c3ncc(C)[nH]3)cc2OC)cc1OC (centres undefined)	1.89
COc1ccc(CCNC[C@H](O)COc2ccc(-c3ncc(-c4cccs4)[nH]3)cc2C)cc1OC	3.32
OC(CNCCc1ccncc1)COc1ccc(-c2ncc(-c3cccs3)[nH]2)cc1 (centres undefined)	2.25
COCCc1cnc(-c2ccc(OC[C@@H](O)CNCCc3ccc(OC)c(OC)c3)cc2)[nH]1	2.06
CCCNCC(O)COc1ccc(-c2ncc(-c3cccs3)[nH]2)cc1 (centres undefined)	2.84
Cc1cnc(Cc2ccc(OC[C@@H](O)CNC(C)(C)C)cc2)[nH]1	1.11
CC(C)(C)NC[C@H](O)COc1ccc(Cc2ncc(-c3cccs3)[nH]2)cc1	2.57
CC(C)NCC(O)COc1ccc(-c2ncc[nH]2)cc1 (centres undefined)	0.65
CC(C)NC[C@H](O)COc1ccc(Cc2ncc(Br)[nH]2)cc1	1.35
CC(C)NCC(O)COc1ccc(-c2ncc(-c3cccs3)[nH]2)cc1 (centres undefined)	2.18
CCCCNC(=O)NCCNCC(O)COc1ccc(-c2ncc(C)[nH]2)cc1 (centres undefined)	1.24
COc1ccc(CCNC[C@H](O)COc2ccc(-c3ncc(C(N)=O)[nH]3)cc2)cc1OC	0.99
COc1ccc(CCNC[C@H](O)COc2ccc(-c3ncc(C(C)(C)C)[nH]3)cc2)cc1OC	2.86
COc1ccc(CCNC[C@H](O)COc2ccc(-c3nc(Br)c(C)[nH]3)cc2)cc1OC	2.69
COc1ccc(CCNC[C@H](O)COc2ccc(-c3nc(Cl)c(C)[nH]3)cc2)cc1OC	2.35
COc1ccc(CCNC[C@H](O)COc2ccc(-c3nc(C(C)=O)c(C)[nH]3)cc2)cc1OC	2.14
CC(C)NC[C@H](O)COc1ccc(-c2ncc(C(C)C)[nH]2)cc1	2.23
COc1ccc(CCNCC(O)COc2ccc(-c3ncc(C)n3C)cc2)cc1OC (centres undefined)	1.72
O=C(NCCNCC(O)COc1ccc(-c2ncc[nH]2)cc1)Nc1ccccc1 (centres undefined)	1.19

From the SangsterLogP compilation
